Laboratory results from ChEMBL document CHEMBL4840338, “Cudraflavone C from Artocarpus hirsutus as a Promising Inhibitor of Pathogenic, Multidrug-Resistant S. aureus, Persisters, and Biofilms: A New Insight into a Rational Explanation of Traditional Wisdom” (J Nat Prod, 2021).
≈ marks a conversion by molar mass, not a printed value. Calls of active or inactive are those of the source. The rule behind the calls is not given here.

Legend:
[1] = Cytotoxicity against African green monkey Vero cells incubated for 72 hrs by MTT assay; type: cell-based; conditions: chlorocebus sabaeus
Staphylococcus aureus [2] = test: Antibacterial activity against Staphylococcus aureus ATCC 29213 assessed as fractional inhibitory concentration in presence of levofloxacin incubated for 24 hrs by checkerboard assay; type: functional
Enterococcus [3] = test: Antibacterial activity against vancomycin-resistant Enterococcus NR 31903 assessed as bacterial growth inhibition incubated for 16 to 18 hrs by broth microdilution method; type: functional; conditions: time 16-18 hrs
Enterococcus [4] = test: Antibacterial activity against vancomycin-susceptible Enterococcus NR 31887 assessed as bacterial growth inhibition incubated for 16 to 18 hrs by broth microdilution method; type: functional; conditions: time 16-18 hrs
Enterococcus [5] = test: Antibacterial activity against vancomycin-susceptible Enterococcus NR 31886 assessed as bacterial growth inhibition incubated for 16 to 18 hrs by broth microdilution method; type: functional; conditions: time 16-18 hrs
Staphylococcus aureus [6] = test: Antibacterial activity against methicillin-resistant Staphylococcus aureus NRS 10119 assessed as bacterial growth inhibition incubated for 16 to 18 hrs by broth microdilution method; type: functional; conditions: time 16-18 hrs
Enterococcus [7] = test: Antibacterial activity against Enterococcus NR 31884 assessed as bacterial growth inhibition incubated for 16 to 18 hrs by broth microdilution method; type: functional; conditions: time 16-18 hrs
Staphylococcus aureus [8] = test: Antibacterial activity against vancomycin-resistant Staphylococcus aureus VRS4 assessed as bacterial growth inhibition incubated for 16 to 18 hrs by broth microdilution method; type: functional; conditions: time 16-18 hrs
Acinetobacter baumannii = test: Antibacterial activity against Acinetobacter baumannii BAA 1605 assessed as bacterial growth inhibition incubated for 16 to 18 hrs by broth microdilution method; type: functional; conditions: time 16-18 hrs
Staphylococcus aureus [9] = test: Antibacterial activity against Staphylococcus aureus ATCC 29213 assessed as bacterial growth inhibition in presence of vancomycin incubated for 24 hrs by checkerboard assay; type: functional
Staphylococcus aureus [10] = test: Antibacterial activity against methicillin-resistant Staphylococcus aureus NRS 10198 assessed as bacterial growth inhibition incubated for 16 to 18 hrs by broth microdilution method; type: functional; conditions: time 16-18 hrs
Staphylococcus aureus [11] = test: Antibacterial activity against methicillin-resistant Staphylococcus aureus NRS 10193 assessed as bacterial growth inhibition incubated for 16 to 18 hrs by broth microdilution method; type: functional; conditions: time 16-18 hrs
Staphylococcus aureus [12] = test: Bactericidal activity against Staphylococcus aureus ATCC 29213 assessed as reduction in bacterial load at 10X MIC preincubated for 1 hr followed by subculturing on TSA plate for 18 to 20 hrs by time-kill assay; type: functional; conditions: time 19-21 hrs
Staphylococcus aureus [13] = test: Antibacterial activity against methicillin-resistant Staphylococcus aureus NRS 10186 assessed as bacterial growth inhibition incubated for 16 to 18 hrs by broth microdilution method; type: functional; conditions: time 16-18 hrs
Staphylococcus aureus [14] = test: Antibacterial activity against Staphylococcus aureus ATCC 29213 assessed as time for increase by 1 log10CFU at 1XMIC incubated for 1 hr followed by drug wash-out and measured every single 1 hr; type: functional
Staphylococcus aureus [15] = test: Antibacterial activity against Staphylococcus aureus ATCC 29213 assessed as bacterial growth inhibition in presence of ceftazidime incubated for 24 hrs by checkerboard assay; type: functional
Staphylococcus aureus [16] = test: Antibacterial activity against Staphylococcus aureus ATCC 29213 assessed as bacterial growth inhibition in presence of linezolid incubated for 24 hrs by checkerboard assay; type: functional
Klebsiella pneumoniae = test: Antibacterial activity against Klebsiella pneumoniae BAA-1705 assessed as bacterial growth inhibition incubated for 16 to 18 hrs by broth microdilution method; type: functional; conditions: time 16-18 hrs
Staphylococcus aureus [17] = test: Antibacterial activity against methicillin-resistant Staphylococcus aureus NRS 10100 assessed as bacterial growth inhibition incubated for 16 to 18 hrs by broth microdilution method; type: functional; conditions: time 16-18 hrs
Staphylococcus aureus [18] = test: Antibacterial activity against methicillin-resistant Staphylococcus aureus NRS 10192 assessed as bacterial growth inhibition incubated for 16 to 18 hrs by broth microdilution method; type: functional; conditions: time 16-18 hrs
Staphylococcus aureus [19] = test: Antibacterial activity against vancomycin-resistant Staphylococcus aureus VRS12 assessed as bacterial growth inhibition incubated for 16 to 18 hrs by broth microdilution method; type: functional; conditions: time 16-18 hrs
Staphylococcus aureus [20] = test: Antibiofilm activity against Staphylococcus aureus ATCC 29213 assessed as reduction in preformed bacterial biofilm at 1XMIC incubated for 24 hrs by crystal violet staining based microtiter plate reader assay; type: functional
Staphylococcus aureus [21] = test: Antibacterial activity against Staphylococcus aureus ATCC 29213 assessed as time for increase by 1 log10CFU at 10XMIC incubated for 1 hr followed by drug wash-out and measured every single 1 hr; type: functional
Staphylococcus aureus [22] = test: Antibacterial activity against Staphylococcus aureus ATCC 29213 assessed as reduction in bacterial growth at sub-MIC incubated for more than 40 days; type: functional, organism-based; conditions: time day >40
Enterococcus [23] = test: Antibacterial activity against vancomycin-susceptible Enterococcus NR 31884 assessed as bacterial growth inhibition incubated for 16 to 18 hrs by broth microdilution method; type: functional; conditions: time 16-18 hrs
Staphylococcus aureus [24] = test: Antibacterial activity against Staphylococcus aureus ATCC 29213 assessed as fractional inhibitory concentration in presence of linezolid incubated for 24 hrs by checkerboard assay; type: functional
Pseudomonas aeruginosa = test: Antibacterial activity against Pseudomonas aeruginosa ATCC 27853 assessed as bacterial growth inhibition incubated for 16 to 18 hrs by broth microdilution method; type: functional; conditions: time 16-18 hrs
Staphylococcus aureus [25] = test: Antibacterial activity against Staphylococcus aureus ATCC 29213 assessed as fractional inhibitory concentration in presence of ceftazidime incubated for 24 hrs by checkerboard assay; type: functional
Staphylococcus aureus [26] = test: Antibacterial activity against Staphylococcus aureus ATCC 29213 assessed as time for post-antibiotic effect at 1XMIC incubated for 1 hr followed by drug wash-out and measured every single 1 hr; type: functional
[27] = Selectivity index, ratio of CC50 for cytotoxicity against African green monkey Vero cells to MIC for antibacterial activity against Staphylococcus aureus ATCC 29213; type: toxicity, cell-based; conditions: read-out: Selectivity Index
Staphylococcus aureus [28] = test: Synergistic antibacterial activity against multidrug-resistant methicillin resistant Staphylococcus aureus NRS 10119 assessed as reduction in bacterial load at 1X MIC preincubated for 24 hrs in presence of gentamycin followed by subculturing on TSA plate for 18 to 20 hrs by time-kill assay; type: functional; conditions: time 42-44 hrs
Enterococcus [29] = test: Antibacterial activity against vancomycin-susceptible Enterococcus NR 31885 assessed as bacterial growth inhibition incubated for 16 to 18 hrs by broth microdilution method; type: functional; conditions: time 16-18 hrs
Staphylococcus aureus [30] = test: Antibacterial activity against Staphylococcus aureus ATCC 29213 assessed as fractional inhibitory concentration in presence of meropenem incubated for 24 hrs by checkerboard assay; type: functional
Staphylococcus aureus [31] = test: Antibacterial activity against Staphylococcus aureus ATCC 29213 assessed as bacterial growth inhibition in presence of daptomycin incubated for 24 hrs by checkerboard assay; type: functional
Escherichia coli = test: Antibacterial activity against Escherichia coli ATCC 25922 assessed as bacterial growth inhibition incubated for 16 to 18 hrs by broth microdilution method; type: functional; conditions: time 16-18 hrs
Staphylococcus aureus [32] = test: Antibiofilm activity against Staphylococcus aureus ATCC 29213 assessed as reduction in preformed bacterial biofilm at 10XMIC incubated for 24 hrs by crystal violet staining based microtiter plate reader assay; type: functional
Staphylococcus aureus [33] = test: Antibacterial activity against Staphylococcus aureus ATCC 29213 assessed as fractional inhibitory concentration in presence of vancomycin incubated for 24 hrs by checkerboard assay; type: functional
Staphylococcus aureus [34] = test: Antibacterial activity against vancomycin-resistant Staphylococcus aureus VRS1 assessed as bacterial growth inhibition incubated for 16 to 18 hrs by broth microdilution method; type: functional; conditions: time 16-18 hrs
Staphylococcus aureus [35] = test: Antibacterial activity against Staphylococcus aureus ATCC 29213 assessed as time for post-antibiotic effect at 10XMIC incubated for 1 hr followed by drug wash-out and measured every single 1 hr; type: functional

Work on `CC(C)=CCc1c(O)cc2oc(-c3ccc(O)cc3O)c(CC=C(C)C)c(=O)c2c1O` [CUDRAFLAVONE C] yielded a CC50 at 72 h [1] of 50 µg/mL (≈ 118 µM), an FIC (Staphylococcus aureus [2]) of 1.5 and an MIC (Enterococcus [3]) of 4 µg/mL (≈ 9.47 µM). It also gave an MIC (Enterococcus [4]) of 4 µg/mL (≈ 9.47 µM), an MIC (Enterococcus [5]) of 4 µg/mL (≈ 9.47 µM) and an MIC (Staphylococcus aureus [6]) of 4 µg/mL (≈ 9.47 µM). The MIC (Enterococcus [7]) was 4 µg/mL (≈ 9.47 µM), the MIC (Staphylococcus aureus [8]) was 4 µg/mL (≈ 9.47 µM) and the MIC (Acinetobacter baumannii) was > 64 µg/mL. The MIC (Staphylococcus aureus [9]) was 2 µg/mL, the MIC (Staphylococcus aureus [10]) was 4 µg/mL (≈ 9.47 µM) and the MIC (Staphylococcus aureus [11]) was 4 µg/mL (≈ 9.47 µM). The Activity (Staphylococcus aureus [12]) was 5 log10CFU/ml, the MIC (Staphylococcus aureus [13]) was 4 µg/mL (≈ 9.47 µM) and the Time (Staphylococcus aureus [14]) was 4 h. For the same compound, the MIC (Staphylococcus aureus [15]) was 2 µg/mL, the MIC (Staphylococcus aureus [16]) was 2 µg/mL and the MIC (Klebsiella pneumoniae) was > 64 µg/mL. It also gave an MIC (Staphylococcus aureus [17]) of 4 µg/mL (≈ 9.47 µM), an MIC (Staphylococcus aureus [18]) of 4 µg/mL (≈ 9.47 µM) and an MIC (Staphylococcus aureus [19]) of 4 µg/mL (≈ 9.47 µM). For the same compound, the “inhibition (INH)” value (Staphylococcus aureus [20]) was 8%, the Time (Staphylococcus aureus [21]) was >24 h and the Activity (Staphylococcus aureus [22]) was “Active”. The MIC (Enterococcus [23]) was 4 µg/mL (≈ 9.47 µM), the FIC (Staphylococcus aureus [24]) was 1.5 and the MIC (Pseudomonas aeruginosa) was > 64 µg/mL. It also gave an FIC (Staphylococcus aureus [25]) of 1.5, a Time (Staphylococcus aureus [26]) of 2 h and a selectivity ratio [27] of 25. The Activity (Staphylococcus aureus [28]) was 6 log10CFU/ml, the MIC (Enterococcus [29]) was 4 µg/mL (≈ 9.47 µM) and the FIC (Staphylococcus aureus [30]) was 1.5. For the same compound, the MIC (Staphylococcus aureus [31]) was 2 µg/mL, the MIC (Escherichia coli) was > 64 µg/mL and the “inhibition (INH)” value (Staphylococcus aureus [32]) was 30.4%. The FIC (Staphylococcus aureus [33]) was 1.5, the MIC (Staphylococcus aureus [34]) was 4 µg/mL (≈ 9.47 µM) and the Time (Staphylococcus aureus [35]) was >22 h.
